“And” between values parts separate entries of the source, which are not always exact repeats. Equal entries are not always repeated.
Details: [M+H2O-H]-; instrument: DT; single field, calibrated with ESI Low Concentration Tuning Mix (Agilent)

collision cross section (N2) [Å²] | Structure (SMILES)
204.5 | Nc1ncnc2c1ncn2C1OC(COP(=O)(O)OP(=O)(O)OCC2OC(O)C(O)C2O)C(O)C1O (stereo not given) [ADENOSINE DIPHOSPHATE RIBOSE]

Same assay, conditions: [M+H]+; instrument: DT; single field, calibrated with ESI Low Concentration Tuning Mix (Agilent)

Structure (SMILES) | collision cross section (N2)
Cc1cc2nc3c(=O)[nH]c(=O)nc-3n(C[C@H](O)[C@H](O)[C@H](O)COP(=O)(O)OP(=O)(O)OC[C@H]3O[C@@H](n4cnc5c(N)ncnc54)[C@H](O)[C@@H]3O)c2cc1C [FAD] | 249 Å²
NC(N)=NCCC[C@H](N)C(=O)O [ARGININE] | 136.6 Å²
NC(CS(=O)(=O)O)C(=O)O (stereo not given) [CYSTEATE] | 140.2 Å²
NC(CS(=O)O)C(=O)O (stereo not given) [3-SULFINOALANINE] | 133.7 Å²
NC(=O)Cc1c[nH]c2ccccc12 [INDOLE-3-ACETAMIDE] | 137 Å²
CS(=N)(=O)CCC(N)C(=O)O (stereo not given) [METHIONINE SULFOXIMINE] | 136.9 Å²
N[C@@H](Cc1cc(I)c(Oc2ccc(O)cc2)c(I)c1)C(=O)O [3,5-DIIODO-L-THYRONINE] | 198.5 Å²
C[C@H]1O[C@@H](n2cnc3c(N)ncnc32)[C@H](O)[C@@H]1O [5'-DEOXYADENOSINE] | 152.3 Å² and 158.4 Å²
Nc1ncnc2c1ncn2[C@@H]1O[C@H](COP(=O)(O)OP(=O)(O)O[C@H]2O[C@H](CO)[C@@H](O)[C@H](O)[C@H]2O)[C@@H](O)[C@H]1O [ADP-GLUCOSE] | 216.1 Å²
Nc1ncnc2c1ncn2C1OC(COP(=O)(O)OP(=O)(O)OCC2OC(O)C(O)C2O)C(O)C1O (stereo not given) [ADENOSINE DIPHOSPHATE RIBOSE] | 212.4 Å²
CCCCCCCCCCCC(=O)O[C@H](CC(=O)[O-])C[N+](C)(C)C [LAUROYLCARNITINE] | 199 Å²
CCOC(=O)Cc1c[nH]c2ccccc12 [ETHYL 3-INDOLEACETATE] | 145.2 Å²
O=C(O)c1ccnc2ccccc12 [4-QUINOLINECARBOXYLATE] | 133.4 Å²
CC1C(=O)Nc2ccccc21 (stereo not given) [3-METHYL-2-OXINDOLE] | 130.4 Å²

The remaining lines, values ahead:

collision cross section (N2) | Structure (SMILES)
130 Å² | CN[C@H](CC(=O)O)C(=O)O [N-METHYLASPARTATE]
130.3 Å² | O=C1CC[C@@H](C(=O)O)N1 [OXOPROLINE]
176.9 Å² | O=c1ccn([C@@H]2O[C@H](COP(=O)(O)OP(=O)(O)O)[C@@H](O)[C@H]2O)c(=O)[nH]1 [URIDINE 5'-DIPHOSPHATE]
120.9 Å² | CCC[C@H](N)C(=O)O [NORVALINE]
133.7 Å² | Cc1ncc(CO)c(CN)c1O [PYRIDOXAMINE]
164.5 Å² | CC[C@H](NC(=O)CC[C@H]([NH3+])C(=O)[O-])C(=O)NCC(=O)[O-] [OPHTHALMATE]
153.8 Å² | CC(=O)NC(Cc1c[nH]c2ccccc12)C(=O)O (stereo not given) [N-ACETYLTRYPTOPHAN]
145.5 Å² | CC(C)=CCNc1ncnc2nc[nH]c12 [N6-(DELTA2-ISOPENTENYL)-ADENINE]

Same assay, conditions: [M+K]+; instrument: DT; single field, calibrated with ESI Low Concentration Tuning Mix (Agilent)

Structure (SMILES) | collision cross section (N2) [Å²]
Nc1ccn([C@H]2C[C@H](O)[C@@H](CO)O2)c(=O)n1 [DEOXYCYTIDINE] | 158.5
O=P(O)(O)O[C@H]1O[C@H](CO)[C@H](O)[C@H](O)[C@H]1O [GALACTOSE 1-PHOSPHATE] | 158.5

Now from value to molecule:

collision cross section (N2) [Å²] | Structure (SMILES)
151.4 | CC(=O)N[C@@H]1[C@@H](O)[C@@H](O)[C@@H](CO)O[C@@H]1O [N-ACETYLGALACTOSAMINE]
148.8 | O=C(O)[C@@H](O)[C@@H](O)[C@H](O)[C@@H](O)C(=O)O [SACCHARATE]
177.6 | OC[C@H]1O[C@H](OC[C@H]2OC(O)(CO)[C@@H](O)[C@@H]2O)[C@H](O)[C@@H](O)[C@@H]1O (stereo not given in full) [PALATINOSE]

Same assay, conditions: [M+Na-2H]-; instrument: DT; single field, calibrated with ESI Low Concentration Tuning Mix (Agilent)

Structure (SMILES) | collision cross section (N2)
Cc1cc2nc3c(=O)[nH]c(=O)nc-3n(C[C@H](O)[C@H](O)[C@H](O)COP(=O)(O)OP(=O)(O)OC[C@H]3O[C@@H](n4cnc5c(N)ncnc54)[C@H](O)[C@@H]3O)c2cc1C [FAD] | 256.2 Å²
NC(CS(=O)(=O)O)C(=O)O (stereo not given) [CYSTEATE] | 131.4 Å²
O=C(O)CCCC(=O)O [GLUTARATE] | 129 Å² and 129.1 Å²
O=C(O)CCCCCCCC(=O)O [AZELATE] | 141.9 Å²
O=P(O)(O)OC[C@H]1OC(O)[C@@H](O)[C@@H](O)[C@@H]1O (stereo not given in full) [MANNOSE 6-PHOSPHATE] | 156.7 Å²
Nc1ncnc2c1ncn2[C@@H]1O[C@H](COP(=O)(O)OP(=O)(O)O[C@H]2O[C@H](CO)[C@@H](O)[C@H](O)[C@H]2O)[C@@H](O)[C@H]1O [ADP-GLUCOSE] | 218.4 Å²
Nc1ncnc2c1ncn2C1OC(COP(=O)(O)OP(=O)(O)OCC2OC(O)C(O)C2O)C(O)C1O (stereo not given) [ADENOSINE DIPHOSPHATE RIBOSE] | 211.5 Å²
Nc1nc(=O)c2ncn([C@H]3C[C@H](O)[C@@H](COP(=O)(O)OP(=O)(O)OP(=O)(O)O)O3)c2[nH]1 [DGTP] | 182.7 Å²

The remaining lines, values ahead:

collision cross section (N2) | Structure (SMILES)
178.6 Å² | O=c1ccn([C@@H]2O[C@H](COP(=O)(O)OP(=O)(O)O)[C@@H](O)[C@H]2O)c(=O)[nH]1 [URIDINE 5'-DIPHOSPHATE]
137.3 Å² | O=C(O)[C@@H](O)[C@@H](O)[C@H](O)[C@@H](O)C(=O)O [SACCHARATE]
163.7 Å² | CC[C@H](NC(=O)CC[C@H]([NH3+])C(=O)[O-])C(=O)NCC(=O)[O-] [OPHTHALMATE]

Same assay, conditions: [M+Na]+; instrument: DT; single field, calibrated with ESI Low Concentration Tuning Mix (Agilent)

Structure (SMILES) | collision cross section (N2)
Cc1cc2nc3c(=O)[nH]c(=O)nc-3n(C[C@H](O)[C@H](O)[C@H](O)COP(=O)(O)OP(=O)(O)OC[C@H]3O[C@@H](n4cnc5c(N)ncnc54)[C@H](O)[C@@H]3O)c2cc1C [FAD] | 250.3 Å²
NC(N)=NCCC[C@H](N)C(=O)O [ARGININE] | 148.6 Å²
NC(CS(=O)(=O)O)C(=O)O (stereo not given) [CYSTEATE] | 148.2 Å²
O=C(O)[C@H]1O[C@H](O)[C@H](O)[C@@H](O)[C@H]1O [GALACTURONATE] | 145.3 Å²
Nc1ccn([C@H]2C[C@H](O)[C@@H](CO)O2)c(=O)n1 [DEOXYCYTIDINE] | 155.2 Å²
NC(=O)Cc1c[nH]c2ccccc12 [INDOLE-3-ACETAMIDE] | 143.4 Å²
CS(=N)(=O)CCC(N)C(=O)O (stereo not given) [METHIONINE SULFOXIMINE] | 138.1 Å²
O=C(O)[C@H]1OC(O)[C@H](O)[C@@H](O)[C@@H]1O (stereo not given in full) [GLUCURONATE] | 150.2 Å²
N[C@@H](Cc1cc(I)c(Oc2ccc(O)cc2)c(I)c1)C(=O)O [3,5-DIIODO-L-THYRONINE] | 189.4 Å²
CO[C@@H]1O[C@H](CO)[C@H](O)[C@H](O)[C@H]1O [METHYL GALACTOSIDE] | 145.4 Å²
C[C@H]1O[C@@H](n2cnc3c(N)ncnc32)[C@H](O)[C@@H]1O [5'-DEOXYADENOSINE] | 167.2 Å²
O=C(O)CCCCCCCC(=O)O [AZELATE] | 148.4 Å²
O=P(O)(O)OC[C@H]1OC(O)[C@@H](O)[C@@H](O)[C@@H]1O (stereo not given in full) [MANNOSE 6-PHOSPHATE] | 156.1 Å²

Now from value to molecule:

collision cross section (N2) | Structure (SMILES)
133.4 Å² | CC(=O)N[C@@H](CO)C(=O)O [N-ACETYLSERINE]
134.7 Å² | CN[C@H](CC(=O)O)C(=O)O [N-METHYLASPARTATE]
150.7 Å² and 157.8 Å² | CC(=O)N[C@@H]1[C@@H](O)[C@H](O)[C@@H](CO)O[C@H]1O [N-ACETYLGLUCOSAMINE]
150.3 Å² | CC(=O)N[C@@H]1[C@@H](O)[C@@H](O)[C@@H](CO)O[C@@H]1O [N-ACETYLGALACTOSAMINE]
178.5 Å² and 181.7 Å² | O=c1ccn([C@@H]2O[C@H](COP(=O)(O)OP(=O)(O)O)[C@@H](O)[C@H]2O)c(=O)[nH]1 [URIDINE 5'-DIPHOSPHATE]
148.3 Å² | O=C(O)[C@@H](O)[C@@H](O)[C@H](O)[C@@H](O)C(=O)O [SACCHARATE]
133.1 Å² | CCC[C@H](N)C(=O)O [NORVALINE]
144.1 Å² | Cc1ncc(CO)c(CN)c1O [PYRIDOXAMINE]
